This note sets out measurements from PubChem BioAssay (NCI).

Some test systems named below: NCI/ADR-RES ovarian; RPMI-8226 leukemia; SW-620 colon; RXF 393 renal; EKVX NSCLC; IGROV1 ovarian; OVCAR-3 ovarian; NCI-H522 lung; SK-MEL-5 melanoma; HCT-116 colon.
Common to all, as to assay: inhibition of tumour cell growth, NCI panel, 48 h

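Five concentrations, 48 hours, 96-well plates. Here, GI50 denotes the concentration required for 50% inhibition of growth. TGI: concentration producing complete growth inhibition.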 Some results are limits rather than exact numbers.

As to `Clc1cnc(Nc2ccc(OCCN3CCCC3)cc2)nc1NCc1ccco1`, the GI50 is 3.15 µM with NCI/ADR-RES ovarian; 2.25 µM with RPMI-8226 leukemia; 2.26 µM with SW-620 colon; 1.25 µM in the assay with RXF 393 renal; 2.1 µM in the assay on EKVX NSCLC; 2.5 µM in the assay on IGROV1 ovarian. In addition, the GI50 was 3.01 µM with OVCAR-3 ovarian, 1.75 µM in the assay on NCI-H522 lung, 1.62 µM in the assay with SK-MEL-5 melanoma and 2.56 µM in the assay with HCT-116 colon. Also, the TGI with NCI/ADR-RES ovarian is 9.53 µM; with RPMI-8226 leukemia it was 5.49 µM; in the assay with SW-620 colon, 13 µM; in the assay on RXF 393 renal it was 3.24 µM; in the assay on EKVX NSCLC it was 6.47 µM; in the assay with IGROV1 ovarian it was 12.8 µM. Besides, the TGI is 9.75 µM in the assay on OVCAR-3 ovarian, 3.96 µM with NCI-H522 lung, 3.42 µM in the assay with SK-MEL-5 melanoma and 28.6 µM with HCT-116 colon.

`CCOC(=O)N1CCC(N=C2CSc3nnc(-c4cc(C(F)(F)F)cc(C(F)(F)F)c4)n3N2)CC1`: the GI50 in the assay on NCI/ADR-RES ovarian is 2.58 µM; in the assay with RPMI-8226 leukemia it was 2.54 µM; with SW-620 colon it was 2.09 µM; in the assay with RXF 393 renal, 1.57 µM; in the assay with EKVX NSCLC, 1.77 µM; with IGROV1 ovarian, 1.9 µM. The GI50 with OVCAR-3 ovarian is 2.01 µM; in the assay on NCI-H522 lung, 2.27 µM; with SK-MEL-5 melanoma, 1.61 µM; in the assay with HCT-116 colon, 1.9 µM. For the same compound, the TGI with NCI/ADR-RES ovarian came out at 8.08 µM; in the assay with RPMI-8226 leukemia it was 7.11 µM; in the assay with SW-620 colon, 4.27 µM; with RXF 393 renal, 3.08 µM; with EKVX NSCLC it was 5.43 µM; with IGROV1 ovarian, 4.79 µM. For the same compound, the TGI with OVCAR-3 ovarian is 3.59 µM; in the assay with NCI-H522 lung, 4.61 µM; in the assay on SK-MEL-5 melanoma, 3 µM; in the assay with HCT-116 colon, 3.7 µM.

With `CCC(=O)NC1=C(Cl)C(=O)C(NC(=O)CC)=C(Cl)C1=O`, the GI50 is 24 µM in the assay with NCI/ADR-RES ovarian; 8.98 µM in the assay with RPMI-8226 leukemia; 5.77 µM in the assay with SW-620 colon; 6.64 µM in the assay with RXF 393 renal; 18.1 µM in the assay on EKVX NSCLC; 20.6 µM in the assay on IGROV1 ovarian. The GI50 in the assay with OVCAR-3 ovarian is 5.14 µM; in the assay with NCI-H522 lung, 5.86 µM; with SK-MEL-5 melanoma, 17.6 µM; in the assay with HCT-116 colon, 6.89 µM. In addition, the TGI in the assay with NCI/ADR-RES ovarian was 58.6 µM; with RPMI-8226 leukemia, 30.4 µM; with SW-620 colon it was 11 µM; in the assay on RXF 393 renal it was 12.8 µM; in the assay on EKVX NSCLC, 33.1 µM; with IGROV1 ovarian it was 37 µM. Besides, the TGI in the assay with OVCAR-3 ovarian was 9.56 µM; in the assay with NCI-H522 lung, 10.7 µM; in the assay on SK-MEL-5 melanoma, 31.7 µM; in the assay on HCT-116 colon it was 17.3 µM.

For the compound `COc1cc2ncnc(Oc3ccc(NC(=O)Nc4ccc(CN5CCOCC5)c(C(F)(F)F)c4)c4ccccc34)c2cc1OC`, the GI50 with NCI/ADR-RES ovarian was 0.919 µM; in the assay with RPMI-8226 leukemia, 0.297 µM; in the assay with SW-620 colon it was 1.04 µM; in the assay on RXF 393 renal, 0.692 µM; in the assay with EKVX NSCLC, 0.463 µM; with IGROV1 ovarian, 0.517 µM. In addition, the GI50 in the assay on OVCAR-3 ovarian is 1.17 µM; in the assay on NCI-H522 lung, 0.419 µM; in the assay with SK-MEL-5 melanoma it was 0.499 µM; with HCT-116 colon, 0.802 µM. The TGI with NCI/ADR-RES ovarian amounted to 21 µM; in the assay with RPMI-8226 leukemia, 2.02 µM; in the assay with SW-620 colon, 7.43 µM; in the assay with RXF 393 renal it was 5.69 µM; in the assay with EKVX NSCLC, 5.91 µM; with IGROV1 ovarian, 3.25 µM. Further, the TGI stood at 6.15 µM with OVCAR-3 ovarian, 3.25 µM in the assay on NCI-H522 lung, 2.34 µM with SK-MEL-5 melanoma and 2.55 µM with HCT-116 colon.

`COc1nn(C)cc1Nc1nccc(-c2c[nH]c3c(NC(=O)[C@@H](C)N4CCN(C)CC4)cccc23)n1`: the GI50 with NCI/ADR-RES ovarian was 61.9 µM; in the assay with RPMI-8226 leukemia, 49.5 µM; in the assay with SW-620 colon, 40.8 µM; in the assay on RXF 393 renal it was 16.6 µM; in the assay with EKVX NSCLC, 47 µM; with IGROV1 ovarian, 18.9 µM. Also, the GI50 in the assay on OVCAR-3 ovarian is 56.1 µM; in the assay with NCI-H522 lung, 43.2 µM; in the assay on SK-MEL-5 melanoma, 18.5 µM; in the assay with HCT-116 colon, 34.3 µM. The TGI is greater than 100 µM in the assay with NCI/ADR-RES ovarian; greater than 100 µM with RPMI-8226 leukemia; greater than 100 µM in the assay on SW-620 colon; 42.2 µM with RXF 393 renal; greater than 100 µM in the assay with EKVX NSCLC; greater than 100 µM with IGROV1 ovarian. Also, the TGI in the assay with OVCAR-3 ovarian was greater than 100 µM; in the assay on NCI-H522 lung, greater than 100 µM; in the assay on SK-MEL-5 melanoma it was 36.5 µM; in the assay on HCT-116 colon, greater than 100 µM.

As to `OC(c1cc(C(F)(F)F)nc2c(Cl)cc(Cl)cc12)C1CCCCN1` (stereo not given), the TGI was 30.2 µM in the assay on NCI/ADR-RES ovarian; 9.19 µM in the assay with RPMI-8226 leukemia; 19.2 µM with SW-620 colon; 18.8 µM in the assay with RXF 393 renal; greater than 100 µM in the assay on EKVX NSCLC; 18.2 µM in the assay on IGROV1 ovarian. Also, the TGI in the assay with OVCAR-3 ovarian was 12.8 µM; with NCI-H522 lung, greater than 21 µM; with SK-MEL-5 melanoma, 22.6 µM; with HCT-116 colon, greater than 35.9 µM.

As for `Nc1nc(-c2ccc3c(c2)/C(=C\c2cc(Br)c(O)c(Br)c2)C(=O)N3)cs1`, the GI50 in the assay on NCI/ADR-RES ovarian is greater than 23.4 µM; in the assay on RPMI-8226 leukemia, 14.9 µM; with SW-620 colon, 10.6 µM; in the assay with RXF 393 renal, 12.5 µM; in the assay with EKVX NSCLC, greater than 25 µM; in the assay with IGROV1 ovarian, greater than 25 µM. Moreover, the GI50 in the assay with OVCAR-3 ovarian was 8.14 µM; with NCI-H522 lung it was 8.12 µM; in the assay on SK-MEL-5 melanoma, 5.4 µM; in the assay on HCT-116 colon it was 12.9 µM. Further, the TGI with NCI/ADR-RES ovarian, in the assay with RPMI-8226 leukemia, in the assay on SW-620 colon, with RXF 393 renal, in the assay with EKVX NSCLC and in the assay with IGROV1 ovarian was greater than 25 µM throughout. In addition, the TGI in the assay on OVCAR-3 ovarian is 20.4 µM; in the assay with NCI-H522 lung it was 19.4 µM; in the assay on SK-MEL-5 melanoma, 12.1 µM; with HCT-116 colon it was greater than 25 µM.
